According to patent US20230382915A1, “GCN2 AND PERK KINASE INHIBITORS AND METHODS OF USE THEREOF” (Deciphera Pharmaceuticals, LLC, priority 2021, published 2023):

What was measured:
[1] = target: PERK enzyme (Homo sapiens (Human), UniProt Q9NZJ5); test: Recombinant PERK activation assay; format: biochemical; conditions: FIG. 9B
Protocol: To measure Compound 2-mediated PERK modulation, 200 nM PERK enzyme (Enzo, Farmingdale, NY) was incubated with Compound 2 titer for 30 min at RT. Following incubation, 200 nM substrate (GFP-eIF2α) (ThermoFisher Scientific, Waltham, MA) and 1 mM ATP was added to the mixture and incubated for 60 min at RT. Reaction was stopped by the addition of 10 mM EDTA and phosphorylated eiF2a substrate was detected using 2 nM LanthaScreen Tb-anti-peIF2α (pSer52) antibody (ThermoFisher Scientific, Waltham, MA) then incubated in the dark. After a 60 min incubation at room temperature, TR-FRET was monitored using an excitation wavelength of 340 nm and emission wavelengths of 490 nm and 520 nm.

[2] = test system: Follicular lymphoma cells; test: Cell proliferation, combination with standard of care, follicular lymphoma; format: cell-based; conditions: with 41 nM ibrutinib, 96 h, FIG. 6D; read-out: inhibition of cell proliferation IC50, combination treatment
Protocol: H929, RPMI8226, GA-10 and DoHH-2 cells (catalog #CRL-9068) were obtained from the American Type Culture Collection (ATTC, Manassas, VA). H929 Cells were maintained in RPMI-1640 medium supplemented with 20% heat-inactivated fetal bovine serum (catalog #A3840002, ThermoFisher Scientific, Waltham, MA), 1% Penicillin/Streptomycin/L-Glutamine (catalog #10378016, ThermoFisher Scientific, Waltham, MA), and 0.05 mM 2-mercaptoethanol (catalog #21985-023, ThermoFisher Scientific, Waltham, MA). […]
For cell proliferation assay appropriate number of cells (Forty thousand cells for H929. Twenty thousand cells for RPMI8226 and GA-10. Eight thousand cells for DoHH-2) were seeded per well in 200 μL in respective medium were dispensed into a 96-well black clear bottom plate. […] Plates were read on a Synergy2 or equivalent reader (Biotek, Winooski VT) using an excitation of 540 nm and an emission of 600 nm. At the end of the incubation of DoHH-2, cell viability was determined using CellTiter-Glo® assay (Promega, Madison, WI). Luminescence was measured using EnVision MultiLabel Reader (PerkinElmer, Waltham, MA). Data was analyzed using GraphPad Prism software (GraphPad, San Diego, CA) to calculate IC50 values.

[3] = test system: ATF4 in H929 multiple myeloma cells; test: H929 ATF4 ELISA assay; format: cell-based
Protocol: H929 multiple myeloma cells (catalog #CRL-9068) were obtained from the American Type Culture Collection (ATTC, Manassas, VA). Briefly, cells were grown in RPMI-1640 medium supplemented with 20% heat-inactivated fetal bovine serum (catalog #A3840002, ThermoFisher Scientific, Waltham, MA), 1% Penicillin/Streptomycin/L-Glutamine (catalog #10378016, ThermoFisher Scientific, Waltham, MA), and 0.05 mM 2-mercaptoethanol (catalog #21985-023, ThermoFisher Scientific, Waltham, MA) at 37° C., 5% CO2, and 95% humidity. Cells were expanded until reaching one million five hundred thousand cells per mL at which time they were sub-cultured or harvested for assay use. One million five hundred thousand cells per well in 1 mL complete growth medium were dispensed into 12-well plates and incubated overnight. A serial dilution of test compound was added, and cells were incubated at 37° C., 5% CO2, and 95% for four hours. Cells were lysed then ATF4 levels were measured using an ELISA assay (Proteintech, Rosemont, IL). Absorbance is measured at 450 nm and 544 nM using a Synergy2 or equivalent reader (Biotek, Winooski VT). Data were analyzed using PRISM software (Graphpad, San Diego, CA) to calculate fold stimulation of cellular ATF4 relative to vehicle treated control.

[4] = test system: ATF4 in thapsigargin stimulated CCRF-CEM cells (PERK); test: CCRF-CEM thapsigargin (TG) ATF4 ELISA; format: cell-based; conditions: Homo sapiens, 1 μM thapsigargin
Protocol: CCRF-CEM leukemia cells (catalog #CCL-116) were obtained from the American Type Culture Collection (ATTC, Manassas, VA). Briefly, cells were grown in RPMI-1640 medium supplemented with 10% heat-inactivated fetal bovine serum (Invitrogen, Carlsbad, CA) and 1% Penicillin/Streptomycin/L-Glutamine at 37° C., 5% CO2, and 95% humidity. Cells were expanded until reaching one million cells per mL at which time they were subcultured or harvested for assay use. One million five hundred thousand cells per well in 1 mL complete growth medium were dispensed into 12-well plates and incubated overnight. A serial dilution of test compound was added and cells were incubated at 37° C., 5% CO2, and 95% for three hours, then 1 μM thapsigargin was added and cells were incubated for an additional hour at 37° C., 5% CO2, and 95%. Cells were lysed then ATF4 levels were measured using an ELISA assay (Proteintech, Rosemont, IL). Absorbance was measured at 450 nm and 544 nM using a Synergy2 or equivalent reader (Biotek, Winooski VT). Data was analyzed using PRISM software (Graphpad, San Diego, CA) to calculate IC50 values.

PERK enzyme, sequence (Q9NZJ5 30-1116): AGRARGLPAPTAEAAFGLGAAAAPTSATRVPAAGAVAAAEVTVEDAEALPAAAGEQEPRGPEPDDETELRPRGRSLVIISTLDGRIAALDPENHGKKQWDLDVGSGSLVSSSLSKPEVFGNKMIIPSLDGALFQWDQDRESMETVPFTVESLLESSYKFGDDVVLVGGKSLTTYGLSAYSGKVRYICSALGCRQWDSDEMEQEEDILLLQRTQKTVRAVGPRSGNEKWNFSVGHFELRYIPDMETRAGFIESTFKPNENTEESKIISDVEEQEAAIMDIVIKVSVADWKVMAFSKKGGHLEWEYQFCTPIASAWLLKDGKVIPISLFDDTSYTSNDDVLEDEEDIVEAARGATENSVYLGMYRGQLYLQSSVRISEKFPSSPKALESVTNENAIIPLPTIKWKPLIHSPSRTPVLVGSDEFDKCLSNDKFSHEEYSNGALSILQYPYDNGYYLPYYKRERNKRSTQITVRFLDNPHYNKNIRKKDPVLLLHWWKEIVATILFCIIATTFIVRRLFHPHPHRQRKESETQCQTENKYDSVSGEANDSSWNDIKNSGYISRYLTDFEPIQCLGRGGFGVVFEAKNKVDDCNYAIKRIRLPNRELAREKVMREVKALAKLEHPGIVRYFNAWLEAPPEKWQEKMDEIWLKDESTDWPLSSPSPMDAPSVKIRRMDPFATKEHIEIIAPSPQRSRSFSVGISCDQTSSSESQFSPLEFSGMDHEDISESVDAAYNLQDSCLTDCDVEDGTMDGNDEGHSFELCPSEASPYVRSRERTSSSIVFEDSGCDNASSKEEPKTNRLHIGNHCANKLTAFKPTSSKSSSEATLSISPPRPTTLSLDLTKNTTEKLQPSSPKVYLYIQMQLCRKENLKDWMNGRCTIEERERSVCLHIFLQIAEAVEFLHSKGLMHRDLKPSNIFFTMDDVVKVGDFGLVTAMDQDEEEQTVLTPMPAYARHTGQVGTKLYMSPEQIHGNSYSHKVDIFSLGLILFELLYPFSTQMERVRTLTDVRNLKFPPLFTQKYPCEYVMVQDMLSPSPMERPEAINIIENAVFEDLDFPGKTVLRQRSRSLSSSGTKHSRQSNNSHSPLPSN

SMILES: Cn1cc(-c2cccc(NS(=O)(=O)c3cc(Cl)cc(CO)c3Cl)c2F)c2c(N)ncnc21 [Example 2, N-(3-(4-amino-7-methyl-7H-pyrrolo[2,3-d]pyrimidin-5-yl)-2-fluorophenyl)-2,5-dichloro-3-(hydroxymethyl)benzenesulfonamide]
- concentrations at which PERK enzyme is activated [1]: 0.05 to 6 nM
- concentrations at which recombinant PERK activity is inhibited [1]: above 3 μM
- activation of PERK enzyme, % of control ([1]; at 0.05-6 nM): up to 250 % of control
- IC50 [2]: 4 nM
- concentration at which maximum ATF4 stimulation occurred ([3]; FIG. 1): around 41 nM
- maximum stimulation in ATF4 signal ([3]; FIG. 1): 13 fold
- concentrations at which ATF4 expression reverted to basal levels ([3]; FIG. 1, inhibitory phase): ≥ 370 nM
- H929 NS ATF4 ELISA (ATF4 stim) ([3]; four hours, relative to vehicle treated control): +++ (an ATF4 stim greater than 10 fold and less than or equal to 20 fold)
- IC50 [4]: ≤ 100 nM
